# Data as given in US20240199578A1, “SOLID STATE FORMS OF ZAVEGEPANT AND PROCESS FOR PREPARATION THEREOF” (TEVA CZECH INDUSTRIES S.R.O, priority 2021, published 2024).
# Assay: Stability to polymorphic conversion (heating, grinding, high relative humidity)
# Format: physicochemical
# Settings: when heated, during grinding and/or high relative humidity
compound,measurement,value
Cc1cc(C[C@@H](NC(=O)N2CCC(c3cc4ccccc4[nH]c3=O)CC2)C(=O)N2CCN(C3CCN(C)CC3)CC2)cc2cn[nH]c12 [Form B],stability to polymorphic conversion,particularly stable to polymorphic conversion
